Values joined by “and” are separate entries in the source; they are usually repeats but may differ in a detail not shown here. Equal values may be shown once. Read-outs that look alike come from different tables or passages of the source. Numbered stars: 1 amine (or outer) side, 2 acyl side, 3 side chain; on linkers, the order of the positions; unused ones are H or OH. Bridge positions count the residues as written; N and C are the ends. Square brackets hold non-standard residues; d marks the D form. Peptide text beside a SMILES is read from it. * marks the point of attachment. ξ: configuration not given here. Orn(4R-OH,5R-OCH2CH2NMe3+) = C[N+](C)(C)CCO[C@@H](N[*:3])[C@H](O)C[C@H](N[*:1])C(=O)[*:2]; pTerphenylCO(4''-OnC5H11) = CCCCCOc1ccc(-c2ccc(-c3ccc(C(=O)*)cc3)cc2)cc1; hTyr(3S-OH,4S-OH) = N[C@H](C(=O)O)[C@H](O)[C@@H](O)c1ccc(O)cc1; X1 = C[C@H]1CN([*:1])C(C(=O)[*:2])C1O; Hyp = O=C(O)[C@@H]1C[C@@H](O)CN1; ξT = CC(O)C(N)C(=O)O
What was measured:
[1] = Monkey pharmacokinetics, SC and IV administration; type: in vivo, cynomolgus monkeys; details: for half-life / AUC(0-t) / Cmax / Tmax / AUC(0-inf): cynomolgus monkey, plasma
Experimental: Therefore, only local tolerability (and PK) of CD101 by SC administration required evaluation. […] Plasma concentrations were then quantified by liquid chromatography with tandem mass spectrometric detection (LC-MS/MS). Bioavailability from SC dosing was calculated by comparing the calculated area under the concentration-time profile (AUC) from SC against the AUC from IV administration of the same dose.

[2] = system: A. fumigatus clinical isolates; assay: MEC, CLSI broth microdilution (M38-A2), SENTRY clinical isolates; type: cell-based, Aspergillus fumigatus; details: 153 isolates, 2014 and 2015 SENTRY
From the text: The in vitro activity of CD101 was previously evaluated as part of the SENTRY international surveillance program using CLSI broth microdilution methodology (M38-A2, M27-A3; Pfaller, et al 2017). […] These susceptibility data were then compared graphically to CD101 plasma concentrations from studies in healthy adults, adjusted for plasma protein binding. Nonclinical efficacy in a murine model of Pneumocystis pneumonia were also considered to evaluate CD101 doses for clinical investigation of antifungal prophylaxis.
The in vitro activity of CD101 was evaluated against 153 A. fumigatus clinical isolates collected as part of the 2014 and 2015 JMI international SENTRY surveillance program. Susceptibility was determined by measuring the minimal effective concentration (MEC) values in accordance with CLSI broth microdilution guidelines (M38-A2). In vivo tissue distribution of CD101 in SD rats (N=3/time up to 5 d) after a 5 mg/kg IV CD101 dose. Plasma/tissue concentrations were measured by LC-MS/MS.

[3] = system: Aspergillus fumigatus ATCC; assay: Prophylaxis, neutropenic ICR mouse aspergillosis model, survival; type: in vivo; details: 14 days
Experimental: Aspergillosis model: ICR mice (6/group) were rendered neutropenic by cyclophosphamide on Day −3 (6 mg/mouse), Day +1, and Day +4 (2 mg/mouse). Challenge with Aspergillus fumigatus ATCC via IV (100 μL, […] CFU/mouse) occurred on Day 0. Prior to challenge, mice were given one SC dose (5, 10 or 20 mg/kg) of CD101 on Day −5, Day −3, or Day −1. Survival was monitored for 14 days.

[4] = Plasma and lung epithelial lining fluid (ELF) pharmacokinetics in ICR mice; type: in vivo; details: 20 mg/kg IP; for Kp: ip, 20 mg/kg
Experimental: At pre-dose, 1, 3, 6, 12, 24, 48, and 72 hours post-dose, 3 mice/timepoint were anesthetized/euthanized for blood collection (plasma) and bronchoalveolar lavage fluid (BALF) collection with 2×0.5 mL flushes of saline. Urea levels for plasma/BALF normalization for the volume of lung epithelial lining fluid (ELF) calculation were quantified using a commercially-available spectrophotometry-based assay. CD101 concentrations in plasma/BALF samples were measured by LC with electrospray ionization tandem mass spectrometric (LC-MS/MS) detection.
Urea for plasma/BALF normalization for ELF volume were quantified using spectrophotometry. CD101 concentrations in plasma/BALF samples were measured by LC-MS/MS. Total plasma concentrations were corrected for protein binding (99.2%).

[5] = system: C. albicans SC-5314 biofilms; assay: Mature phase biofilms (treatment) on silicone elastomer discs; type: cell-based, Candida albicans
Experimental: Biofilms were formed on silicone elastomer (SE) discs using a catheter-associated-biofilm model (Chandra et al., Nature Protocols 3:1909, 2008; Chandra et al., J. […] Chandra et al., J. Dental Research 80: 903, 2001). For evaluation of activity against adhesion phase biofilms (prevention), Candida cells were adhered to catheter discs for 90 min. […] Discs incubated with fluconazole or media alone were used as controls in all experiments. […] Chandra et al., J. […] Chandra et al., J. Dental Research 80: 903, 2001). Following incubation with drugs, discs were transferred to fresh plates containing phosphate buffered saline with XTT and menadione, incubated for 3 h at 37° C. and optical density was read at 492 nm. Separate batches of biofilms were stained with fluorescent dyes (FUN1™, CONA) and observed under Confocal Scanning Laser Microscope (CSLM) to evaluate biofilm architecture and thickness (Chandra et al., Nature Protocols 3:1909, 2008; Chandra et al., J. […] Statistical analyses for all data were performed using GraphPad Prism 6 software. Drug treated groups were compared to control untreated groups using unpaired t-tests.

A. fumigatus ATCC 13073 = assay: Disseminated aspergillosis in neutropenic ICR mice (Example 14), treatment and prophylaxis; type: in vivo, Aspergillus fumigatus
Experimental: Disseminated aspergillosis: ICR mice (6/grp) were made neutropenic by cyclophosphamide on Days −3 (270 mg/kg), +1 and +4 (90 mg/kg). IV infection with A. fumigatus ATCC 13073 (10^4 CFU/mouse) on Day 0. […] Survival monitored for a 10 days. Same model was used for prophylaxis except CD101 was dosed on Days −1, −3 or −5.

[6] = both sexes, sc, Subcutaneous, 30 mg/kg
[7] = female, animal 9707, F, 30 mg/kg SC single dose
[8] = male, animal 9697, M, 30 mg/kg SC single dose

CCCCCOc1ccc(-c2ccc(-c3ccc(C(=O)N[C@H]4C[C@@H](O)[C@@H](OCC[N+](C)(C)C)NC(=O)C5C(O)[C@@H](C)CN5C(=O)[C@H]([C@@H](C)O)NC(=O)[C@H]([C@H](O)[C@@H](O)c5ccc(O)cc5)NC(=O)[C@@H]5C[C@@H](O)CN5C(=O)C(C(C)O)NC4=O)cc3)cc2)cc1 (stereo partly drawn) [CD101] ({pTerphenylCO(4''-OnC5H11)}-[Orn(4R-OH,5R-OCH2CH2NMe3+)][ξT][Hyp][hTyr(3S-OH,4S-OH)]T[X1]; lactam 1-C)
time at which maximum plasma concentration was reached ([1]; 30 mg/kg SC): > 24 h | bioavailability (SC vs IV total exposure over 10 days) ([1]; 30 mg/kg SC vs IV): 80% | half-life ([1]; both sexes, sc, 30 mg/kg, Subcutaneous): ~124 h | AUC(0-t) [1, 6]: 2460 µg·h/mL | Cmax [1, 6]: 13400 ng/mL | Tmax [1, 6]: 72 h | AUC(0-inf) ([1]; both sexes, sc, Subcutaneous, 30 mg/kg, read-out: AUCinf): 3520 µg·h/mL | AUC(0-t) ([1]; iv, 30 mg/kg): 3140 µg·h/mL | Cmax ([1]; iv, 30 mg/kg): 112000 ng/mL | Tmax ([1]; iv, 30 mg/kg): 1 h | half-life ([1]; iv, 30 mg/kg): 49.7 h | AUC(0-inf) ([1]; iv, 30 mg/kg, read-out: AUCinf): 3340 µg·h/mL | half-life ([1]; female, sc, 30 mg/kg, animal 9707, F, 30 mg/kg SC single dose): 171 h | AUC(0-t) [1, 7]: 2180 µg·h/mL | Cmax [1, 7]: 10900 ng/mL | Tmax [1, 7]: 48 h | AUC(0-inf) ([1]; female, animal 9707, F, 30 mg/kg SC single dose, read-out: AUCINF_obs): 3760 µg·h/mL | half-life ([1]; male, sc, 30 mg/kg, animal 9697, M, 30 mg/kg SC single dose): 76.2 h | AUC(0-t) [1, 8]: 2740 µg·h/mL | Cmax [1, 8]: 15900 ng/mL | Tmax [1, 8]: 96 h | AUC(0-inf) ([1]; male, animal 9697, M, 30 mg/kg SC single dose, read-out: AUCINF_obs): 3280 µg·h/mL | MEC50 [2]: 0.015 µg/mL | MEC90 [2]: 0.015 µg/mL | survival ([3]; 5 mg/kg SC): increased survival when prophylaxis was given closer to challenge | increases in survival compared with vehicle ([3]; 5, 10 and 20 mg/kg SC on Day −5, −3 or −1): > 50% | survival ([3]; 10 and 20 mg/kg SC, any prophylaxis day): All animals in the 10 and 20 mg/kg groups survived | mean maximum ELF concentration [4]: 15.1 µg/mL | mean maximum plasma concentration [4]: 30.1 µg/mL | time of maximum ELF concentration [4]: 6 h and 4 h | time of maximum plasma concentration ([4]; first collection timepoint): 1 h | concentration at 72 h ([4]; ICR, mouse, lung epithelial lining fluid (ELF), intraperitoneal, at 72 h): 4000 ng/mL | Kp ([4]; ICR, mouse, lung epithelial lining fluid (ELF), free-drug (protein binding 99.2%), read-out: ELF/Plasma AUC ratio): 100 | Kp ([4]; ICR, mouse, lung epithelial lining fluid (ELF), read-out: AUC exposure ratios of ELF/plasma): 0.8 to 0.95 | Kp ([4]; ICR, mouse, lung epithelial lining fluid (ELF), total-drug, read-out: ELF/Plasma AUC ratio): 0.8 | half-life ([4]; ICR, mouse, lung epithelial lining fluid (ELF), read-out: ELF half-life (converted)): 31.9 h | AUC(0-t) ([4]; ICR, mouse, lung epithelial lining fluid (ELF), read-out: mean ELF AUC0-72): 606 µg·h/mL | AUC(0-inf) ([4]; ICR, mouse, lung epithelial lining fluid (ELF), read-out: mean ELF AUCinf): 802 µg·h/mL | AUC(0-t) ([4]; ICR, mouse, plasma, read-out: mean plasma AUC0-72): 762 µg·h/mL | AUC(0-inf) ([4]; ICR, mouse, plasma, read-out: mean plasma AUCinf): 848 µg·h/mL | half-life ([4]; ICR, mouse, plasma, read-out: plasma half-life (converted)): 21.1 h | biofilm architecture (CSLM) ([5]; 0.25 and 1 μg/ml): eradicated and showed bulged, deformed/broken cells | biofilm metabolic activity (XTT) ([5]; 0.25 and 1 μg/ml, 24 h, vs untreated, P<0.05): significantly less metabolic activity | thickness of biofilms ([5]; CD101 exposed, untreated control 43 μm, P<0.05): 24 μm | survival (A. fumigatus ATCC 13073; prophylaxis): 100% | survival (A. fumigatus ATCC 13073; prophylaxis, single 5 mg/kg given up to 5 days prior to infection): improved survival depending on day given | survival (A. fumigatus ATCC 13073; treatment, IV/IP at 0.2, 1 or 5 mg/kg BID×5 d, vs vehicle): significant increase in survival compared to vehicle | survival (A. fumigatus ATCC 13073; treatment, single 2 mg/kg vs 0.2 mg/kg BID×5 d): Survival was comparable
